# Columns and labels:
# [1] = test system: neutrophils; assay: Random migration of human neutrophils (Boyden chamber, PBS in lower part); type: cell-based; settings: Neutrophil, 1 μg/ml, 15 min preincubation, 1 to 3 hours at 37° C., relative to control = 100%, read-out: random motoricity
# Description: (§1) Neutrophils were separated from human peripheral blood and the effect of various tocopherylglycosides on random migration and chemotaxis of the neutrophils were measured by using Boyden chambers.
# (§2) Tocopherol or a tocopheryl glycoside dissolved in 1% dimethylsulfoxide was added to a suspension containing 2.5×10^6 cells/ml of neutrophils so that a concentration of tocopherol or the tocopheryl glycoside was 1 μg/ml. After 15 minutes incubation at 37° C., the mixture was added to the upper part of the chamber. To the lower part of the chamber was added PBS in case of measuring random migration, or added 2×10^-8 M of N-formyl-methionyl-leucyl-phenylalanine in case of measuring chemotaxis. Then, the chamber was incubated at 37° C. for 1 to 3 hours. After incubation, the filter was fixed and stained with hematoxylin, and then the number of neutrophils migrated to the bottom of the filter was counted by using a microscope. As a control, the same procedure was repeated except that tocopherol or the tocopheryl glycoside was not added. In Table 1, the relative percentage of the counting obtained by addition of tocopherol or the tocopheryl glycoside is shown by taking the counting of the control as 100%.
# [2] = test system: neutrophils; assay: Chemotaxis of human neutrophils (Boyden chamber, N-formyl-methionyl-leucyl-phenylalanine in lower part); type: cell-based; settings: Neutrophil, 1 μg/ml, 2×10^-8 M N-formyl-methionyl-leucyl-phenylalanine, 1 to 3 hours at 37° C., relative to control = 100%
# Description: as §1, §2
# [3] = test system: neutrophils; assay: Phagocytosis of neutrophils (opsonized FITC-labeled Staphylococcus aureus IFO 13276); type: cell-based; settings: Homo sapiens, Neutrophil, 0.25 h; 1 μg/ml; 15 min at 37° C.; relative to control = 100%
# Description: Neutrophils were separated from human peripheral blood and a suspension containing 2.5×10^6 cells/ml of neutrophils was prepared. Tocopherol or a different tocopheryl glycoside was added to 900 μl of this suspension so that the concentration of tocopherol or the tocopheryl glycoside was 1 μg/ml and the mixture was incubated at 37° C. for 15 minutes.
# The suspension (100 μl) containing 1×10^9 cells/ml of opsonized Staphylococcus aureus (IFO 13276) labeled with fluorescein isothiocyanate was added to the mixture. The resulting mixture was incubated at 37° C. for 15 minutes. Then, the number of cells incorporated into 100 cells of neutrophils was counted by using a fluorescence microscope. As a control, the same procedure was repeated except that tocopherol or the tocopheryl glycoside was not added. In Table 2, the relative percentage of the counting obtained by addition of tocopherol or the tocopheryl glycoside is shown by taking the counting of the control as 100%.
# [4] = test system: Pseudomonas aeruginosa (P-1 strain, Ikaken); assay: In vivo test to Pseudomonas aeruginosa (survival of infected mice); design: species or system ICR mice; settings: 1 mg/kg i.v. once a day for three days; 2.5×10^7 cells P. aeruginosa i.p.; after 24 hours; control 0%
# Description: An aqueous injectable solution of dl-α-tocopheryl glucoside or dl-α-tocopheryl mannoside (see Example 3) was intravenously injected to ICR mice (body weight: 20 to 25 g, 10 mice per a group (5 female mice and 5 male mice)) once a day (dose: 1 mg/kg) for three days continuously. After the final injection, 2.5×10^7 cells of Pseudomonas aeruginosa (P-1 strain, Ikaken) were injected i.p. and the percentage of survival animuls was determined after 24 hours. As a control, the same procedure was repeated except that an equal amount of distilled water was used instead of the tocopheryl glycoside and the percentage of survival animals was determined. As the result, the percentage of survival of the control group was 0%, whereas that of the group injected with dl-α-tocopherylglucoside or dl-α-tocopherylmannoside was 20%, respectively.
# [5] = Acute toxicity (LD50) in rat; settings: in vivo
Structure (SMILES),activity at 1 µg/mL [1] [%],activity at 1 µg/mL [2] [%],activity at 1 µg/mL [3] [%],percentage of survival [4] [%],LD50 ([5]; ip) [mg/kg],LD50 ([5]; po) [mg/kg]
"Cc1c(C)c2c(c(C)c1OC1O[C@H](CO)[C@H](O)[C@H](O)[C@H]1O)CCC(C)(CCCC(C)CCCC(C)CCCC(C)C)O2 (mixture of isomers) [dl-α-Tocopherylgalactoside, reference compound]",64 ± 8,85 ± 3,112 ± 9,,,
"Cc1c(C)c2c(c(C)c1OC1O[C@H](CO)[C@@H](O)[C@H](O)[C@H]1O)CCC(C)(CCCC(C)CCCC(C)CCCC(C)C)O2 (mixture of isomers) [dl-α-Tocopherylglucoside, dl-α-tocopherylglucoside]",98 ± 34,140 ± 6,168 ± 31,20,≥ 500,≥ 5000
Cc1c(C)c2c(c(C)c1O[C@@H]1O[C@H](CO)[C@@H](O)[C@H](O)[C@@H]1O)CCC(C)(CCCC(C)CCCC(C)CCCC(C)C)O2 (mixture of isomers) [dl-α-Tocopherylmannoside],71 ± 16,168 ± 3,219 ± 21,20,≥ 500,≥ 5000
"Cc1c(C)c2c(c(C)c1O)CCC(C)(CCCC(C)CCCC(C)CCCC(C)C)O2 (racemic) [dl-α-Tocopherol, reference compound]",82 ± 12,94 ± 5,164 ± 16,,,
